According to patent US20220101973A1, “PERSONALIZED TREATMENT TOOL” (Roche Diabetes Care, Inc., priority 2018, published 2022):
“Also recorded” adds a separate entry of the source. Where two headings read alike, the source gives them in different places.

Experiments:
type 2 diabetes patients [1] = assay: Hyperglycemia Efficacy Index (HEI) of diabetes drugs, from review of phase III trials with 7- or 8-point SMBG; assay type: in vivo, human; settings: median ratio of effect on FBG vs effect on PPG; drugs from the same class have the same HEI
Text: Such results can be e.g. assessed via scientific publications or regulatory documents which disclose the results for the trials. Suitable scientific publications describing such trials for individual drugs can be, e.g., identified via PubMed. In an embodiment, the trials have assessed large cohorts of diabetes patients such as type 2 diabetes patients and report 7- or 8 point self-monitoring blood glucose data with determinations carried out in the fasting state, in the pre-prandial state and in the post-prandial state. In an embodiment, the trials include only type 2 diabetes patients without major comorbidities.
For establishing the database, the published information on the effects under (d1), (d2), and the risk under (d4) shall be taken into account. The indices under (d3), can be determined based on the published information for the analyzed trials.
In an embodiment, the Hyperglycemia Efficacy Index (HEI) for a drug is the ratio of the effect of said drug on fasting glucose to the effect of said drug on post-prandial glucose (i.e. the effect under (d1) and the effect under (d2)).

type 2 diabetes patients [2] = settings: cited from earlier work

C[C@H]1O[C@H](O[C@H]2[C@H](O)[C@@H](O)[C@@H](O[C@H]3[C@H](O)[C@@H](O)C(O)O[C@@H]3CO)O[C@@H]2CO)[C@H](O)[C@@H](O)[C@@H]1N[C@H]1C=C(CO)[C@@H](O)[C@H](O)[C@H]1O (stereo partly drawn) [Acarbose]
Hyperglycemia Efficacy Index (HEI) (type 2 diabetes patients [1]): HEI 0.54 | Hypo Risk Index (HRI) (type 2 diabetes patients [2]; 30 mg): HRI 1 - low | Hypo Risk Index (HRI) (type 2 diabetes patients [2]; 300 mg): HRI 1 - low

Cc1ccc([C@@H]2O[C@H](CO)[C@@H](O)[C@H](O)[C@H]2O)cc1Cc1ccc(-c2ccc(F)cc2)s1 [Canagliflozin]
Hypo Risk Index (HRI) (type 2 diabetes patients [2]; 100 mg): HRI 1 - low | Hypo Risk Index (HRI) (type 2 diabetes patients [2]; 300 mg): HRI 1 - low

CCOc1ccc(Cc2cc([C@@H]3O[C@H](CO)[C@@H](O)[C@H](O)[C@H]3O)ccc2Cl)cc1 [Dapagliflozin]
Hypo Risk Index (HRI) (type 2 diabetes patients [2]; 10 mg): HRI 1 - low

OC[C@H]1O[C@@H](c2ccc(Cl)c(Cc3ccc(O[C@H]4CCOC4)cc3)c2)[C@H](O)[C@@H](O)[C@@H]1O [Empagliflozin]
Hyperglycemia Efficacy Index (HEI) (type 2 diabetes patients [1]): HEI 0.56 | Hypo Risk Index (HRI) (type 2 diabetes patients [2]; 10 mg): HRI 1 - low | Hypo Risk Index (HRI) (type 2 diabetes patients [2]; 25 mg): HRI 1 - low

Cc1ccc(S(=O)(=O)NC(=O)NN2CC3CCCC3C2)cc1 (stereo not drawn) [Gliclazide]
Hypo Risk Index (HRI) (type 2 diabetes patients [2]; 80-320 mg): HRI 2 - moderate; also recorded: HRI 2 - medium

CCC1=C(C)CN(C(=O)NCCc2ccc(S(=O)(=O)NC(=O)N[C@H]3CC[C@H](C)CC3)cc2)C1=O [Glimepiride]
Hypo Risk Index (HRI) (type 2 diabetes patients [2]; 1-8 mg): HRI 2 - moderate; also recorded: HRI 2 - medium

CCCCCCCCCCCCCCCC(=O)N[C@@H](CCC(=O)NCCCC[C@H](NC(=O)[C@H](C)NC(=O)[C@H](C)NC(=O)[C@H](CCC(N)=O)NC(=O)CNC(=O)[C@H](CCC(=O)O)NC(=O)[C@H](CC(C)C)NC(=O)[C@H](Cc1ccc(O)cc1)NC(=O)[C@H](CO)NC(=O)[C@H](CO)NC(=O)[C@@H](NC(=O)[C@H](CC(=O)O)NC(=O)[C@H](CO)NC(=O)[C@@H](NC(=O)[C@H](Cc1ccccc1)NC(=O)[C@@H](NC(=O)CNC(=O)[C@H](CCC(=O)O)NC(=O)[C@H](C)NC(=O)[C@@H](N)Cc1cnc[nH]1)[C@@H](C)O)[C@@H](C)O)C(C)C)C(=O)N[C@@H](CCC(=O)O)C(=O)N[C@@H](Cc1ccccc1)C(=O)N[C@H](C(=O)N[C@@H](C)C(=O)N[C@@H](Cc1c[nH]c2ccccc12)C(=O)N[C@@H](CC(C)C)C(=O)N[C@H](C(=O)N[C@@H](CCCNC(=N)N)C(=O)NCC(=O)N[C@@H](CCCNC(=N)N)C(=O)NCC(=O)O)C(C)C)[C@@H](C)CC)C(=O)O [Liraglutide]
Hypo Risk Index (HRI) (type 2 diabetes patients [2]; 1.2 mg): HRI 1 - low | Hypo Risk Index (HRI) (type 2 diabetes patients [2]; 1.8 mg): HRI 1 - low

CN(C)C(=N)N=C(N)N [Metformin]
Hyperglycemia Efficacy Index (HEI) (type 2 diabetes patients [1]): HEI 0.59 | Hypo Risk Index (HRI) (type 2 diabetes patients [2]; ≥1000 mg): HRI 1 - low

CCOc1cc(CC(=O)N[C@@H](CC(C)C)c2ccccc2N2CCCCC2)ccc1C(=O)O [Repaglinide]
Hyperglycemia Efficacy Index (HEI) (type 2 diabetes patients [1]): HEI 0.62 | Hypo Risk Index (HRI) (type 2 diabetes patients [2]; 1.5-12 mg): HRI 2 - medium

Dulaglutide
Hypo Risk Index (HRI) (type 2 diabetes patients [2]; 0.75 mg): HRI 1 - low | Hypo Risk Index (HRI) (type 2 diabetes patients [2]; 1.5 mg): HRI 1 - low

Exenatide LAR
Hyperglycemia Efficacy Index (HEI) (type 2 diabetes patients [1]): HEI 0.76 | Hypo Risk Index (HRI) (type 2 diabetes patients [2]; 2 mg): HRI 1 - low
